Data: US9018176B2, “Inducers of hematopoiesis and fetal globin production for treatment of cytopenias and hemoglobin disorders” (priority 2010, dated 2015)
“And” between values parts separate entries of the source, which are not always exact repeats. Equal entries are not always repeated. Where two headings read alike, the source gives them in different places.

Columns and labels:
[1] = tested on: red blood cells; assay: Adult human subject with alpha thalassemia trait given desloratidine; format: in vivo; conditions: 5 mg/day once per day, within 4 weeks
Protocol: Desloratidine was administered to an adult human subject with alpha thalassemia trait at a standard allergy treatment dose of 5 mg/day total, once per day. […] This is an unexpected and rapid rise in red blood cell levels in a mildly anemic subject. Accordingly, the inventors have discovered that desloratidine can be used to increase red blood cells in a subject at a dose of […] in order to increase the red blood levels in a subject in need of treatment. In some embodiments, the subject who is administered desloratidine is selected to have a low red blood count, or is anaemic or has a cytopenia as disclosed herein.

[2] = tested on: CB BFU-E cells; assay: CB BFU-E cell proliferation (cells/colony); conditions: FIG. 8
Protocol: Fetal globin-inducing activity in human erythroid progenitors was assessed. Human erythroid progenitors were cultured from peripheral blood samples, exposed to the test compounds at varying concentrations and for varying durations and analyzed for globin chain mRNA ratios. Erythroid progenitors were cultured from cord blood CD34+ cells. Briefly, CD34+ cells in the human cord blood were separated using a Ficoll-paque density gradient. CD34+ cells were cultured in H4230 medium containing 2 mM L-glutamine, 1% Methylcellulose in Iscove's Medium, 30% Fetal Bovine Serum, 1% Bovine Serum Albumin and 10^-4 M β-mercaptoethanol. Methylcellulose H4230 medium was supplemented with EPO (0.5 U/ml) and IL-3 (20 ng/ml) to support BFU-e growth. Cells were cultured in […] mini-dishes and incubated in a humidified atmosphere containing 5% CO2, at 37° C. Different concentrations of the test compounds were added at the time the cultures were established. Each compound was tested in three different cultures. BFU-e colonies grown in mini-dishes were counted on day 14 and harvested for mRNA analysis.

[3] = tested on: γ-globin; assay: Fetal globin (γ-globin mRNA, HbF) induction in phlebotomized anemic baboons; format: in vivo, baboons (Papio hamadryas anubis); conditions: for increase of fetal hemoglobin (HbF) protein levels above levels produced by erythroid stress alone: Desloratidine 0.6 mg/kg orally
Protocol: (§1) Studies to evaluate pharmacokinetic properties and γ-globin induction were performed in juvenile baboons (Papio hamadryas anubis). Briefly, animals were chronically phlebotomized on a daily basis to achieve stable anemia, maintaining a total hemoglobin level of 7.0 to 7.5 g/dl. Candidate compounds were administered intravenously or orally once daily in single doses for pharmacokinetic studies, or once daily in single doses, 4-5 days per week for 4-5 weeks, for pharmacodynamic studies. […] Levels of γ-globin mRNA expression and globin chain synthesis were assessed in baboons before and during treatment with test compounds. A washout period between administrations of different compounds in the same baboon was provided.
(§2) Chronically catheterized baboons were phlebotomized daily to create chronic anemia with total hemoglobin levels (Hb) between 7.0 to 7.5 g/dl which simulates the expanded erythropoiesis and anemia in sickle cell disease and beta thalassemia. Blood counts were drawn and total Hb (hemoglobin) and reticulocytes were analyzed on a hemavet analyzer. Fetal globin mRNA was analyzed by RT-PCR and proportions for f-cells were analyzed by flow cytometry. […] Desloratidine (0.6 mg/kg) was administered for 4 days following a washout period. Blood counts were obtained at least 3 days/week.
Baboons HL-25 and HD50 were phlebotomized daily to create anemia with erythroid expansion. When stably anemic, Desloratidine (0.6 mg/kg) was administered orally, fetal hemoglobin (HbF) protein levels were assayed.

[4] = tested on: γ-globin; assay: as above; format: in vivo, baboons (Papio hamadryas anubis)
[5] = tested on: red blood cell production; assay: Total hemoglobin and hematocrit in phlebotomized anemic baboons; format: in vivo, baboons (Papio hamadryas anubis); conditions: FIG. 12B; MS-275 3 mg/m^2 for 4 days and 2 weeks vs ST20 2 and 4 days; desloratadine 0.6 mg/kg for two days
Protocol: as §1, §2
Baboon 1509 (weight 10.9 kg) was phlebotomized to induce anemia and marrow expansion, similar to the hemoglobin disorders.

[6] = tested on: γ-globin mRNA; assay: γ-globin mRNA in cultured primary human erythroid progenitors (BFU-e), real-time PCR; format: cell-based
Protocol: Erythroid progenitors were cultured from cord blood CD34+ cells. […] Each compound was tested in three different cultures. […] On day 14, RNA was extracted from cultured erythroid cells, and relative quantification PCR was performed. Briefly, cDNA was generated from equal amounts of total RNA extracted using The PerfectPure RNA Purification Kit (5 Prime Inc Gaithersburg, Md.). Real-time PCR was performed using an ABI 7500 Real-Time PCR system (Applied Biosystems, Foster City, Calif.). Levels of globin mRNA were calculated by the ΔΔCt method. […] GAPDH levels were used for standardization. Western blotting Nuclear extract of K562 cells and 14-day-old BFU-e were analyzed by electrophoresis using 5-24% gradient SDS-polyacrylamide mini-gels (BIORAD Laboratories. Hercules Calif.). Proteins in the gels were transferred to Immobilon-P membranes. Blots were then incubated with BCL11A polyclonal (Novus Biologicals, Littleton Co) or mouse monoclonal (Santa Cruz Biotechnology, Santa Cruz Calif.) antibodies, after washing blots were incubated with anti-rabbit IgG-horseradish peroxidase secondary antibody (ECL, Little Chalfont Buckinghamshire UK). BCL11A bands were detected on the X-ray film using Western Lightning Reagents (Perking Elmer Inc, Waltham, Mass.).

[7] = tested on: γ-globin mRNA; assay: γ-globin mRNA gene expression in K562 cells; format: cell-based; conditions: FIGS. 4A and 4B, K562 cells; Resveratrol 30 μM, desloratadine 50 μM, NSC 50 μM, Benserazine 5 μM
[8] = tested on: γ-globin mRNA; assay: γ-globin mRNA in cultured primary human erythroid progenitors (BFU-e), real-time PCR; format: cell-based; conditions: for fetal globin mRNA, Mean: vs untreated control cultures from the same subject
[9] = tested on: γ-globin reporter cell line; assay: Cytotoxicity counter screen run simultaneously with the HTS; format: cell-based, human; conditions: simultaneous counter screen of the HTS
[10] = tested on: γ-globin gene promoter; assay: High throughput screen: LCR-HS2 γ-globin gene promoter EGFP reporter cell assay; format: cell-based, human; conditions: pilot screen plate, fold increase relative to NC (negative control)
Source text: FIG. 1B is a schematic illustration showing an illustration of the method of the high throughput screening assay (HTS) with the cell construct comprising a locus control region (LCR) linked to the y-globin gene promoter and enhanced GFP (EGFP). A compound which activates γ-globin promoter will induce gene expression of EGFP which can be detected by a suitable detector.
A human cell-based assay which was previously used in low throughput assays, utilizing a 1.4-kilobase (kb) KpnI-BglII fragment of the HS2 of the locus control region (LCR) linked to the γ-globin gene promoter and the enhanced green fluorescent protein (EGFP) reporter gene, was adapted for high throughput screening and employed as the primary screen (FIG. 1A). Cytotoxic activity was assayed in a simultaneous counter screen. […] Several hits were immediately eliminated from further development as potential hemoglobinopathy therapeutics because of cytotoxicity (e.g., Idarubicin) or undesirable off-target effects, but nonetheless validated the HTS itself and were validated in secondary confirmatory assays as highly-potent HbF-inducers. […]

[11] = tested on: γ-globin; conditions: in humans, about 3-fold less than in baboons; cited from earlier work
[12] = Desloratadine 3 uM, Cord Blood progenitors
[13] = Desloratadine 3 uM, Hemoglobin disorder progenitors

Clc1ccc2c(c1)CCc1cccnc1C2=C1CCNCC1 [Desloratadine, 8-Chloro-6,11-dihydro-11-(4-piperidinylidene)-5H-benzo[5,6]cyclohepta[1,2-b]pyridine]
Hemoglobin after treatment ([1]; increased from 10): 11.5 g/gl | hematocrit after treatment ([1]; increased from 30%): 35% | number of blood cells per colony [2]: increase the number of blood cells per colony | increase of fetal hemoglobin (HbF) protein levels above levels produced by erythroid stress alone ([3]; Baboon HD50): 170% | increase of fetal hemoglobin (HbF) protein levels above levels produced by erythroid stress alone ([3]; Baboon HL25): 193% | fetal globin mRNA ([3]; Benserazide 1 or 3 mg/kg in baboon 1509, MS-275 and desloratidine): induced | γ-globin mRNA expression in blood compared with positive control ST20 (150 mg/kg) ([3]; FIG. 12A, MS-275 3 mg/m^2 for 4 days and 2 weeks, desloratadine 0.6 mg/kg for two days vs ST20 after 2 or 4 days): more effective | time of treatment to detected fetal globin induction and increased HbF ([3]; desloratidine, same baboon as ST-20): ≤ 4 days | Increase in γ-globin mRNA above baseline ([4]; Baboon HD50, Desloratadine oral 0.55 mg/kg): 350% | Increase in γ-globin mRNA above baseline ([4]; Baboon HD50, Desloratadine oral 0.55 mg/kg, listed as Desloratidine): 350% | Increase in γ-globin mRNA above baseline ([4]; Baboon HL25, Desloratadine oral 0.55 mg/kg): 386% | Increase in γ-globin mRNA above baseline ([4]; Baboon HL25, Desloratadine oral 0.55 mg/kg, listed as Desloratidine): 386% | blood total hemoglobin (Hb) levels compared with positive control ST20 (150 mg/kg) [5]: significantly more effective | % induction of γ-globin mRNA gene expression ([6]; FIG. 4C, HFU-E (burst-forming units-erythroid) cells, Resveratrol 30 μM, desloratadine 50 μM, NSC 50 μM, Benserazine 5 μM): most significant % increase | effect in increasing % of γ-globin mRNA expression ([6]; FIG. 6, BFU-e cells, Desloratadine 3 μM, Benserazide 3 μM, NSC5397 0.6 μM): greatest effect | % induction of γ-globin mRNA gene expression [7]: most significant % increase | responses (cultures with induced fetal globin mRNA) [8, 12]: 4/4 responses | fetal globin mRNA, Mean [8, 12]: 323 % of control | responses (cultures with induced fetal globin mRNA) [8, 13]: 3/3 responses | fetal globin mRNA, single subjects ([8]; Desloratadine 3 uM, Hemoglobin disorder progenitors (subjects)): 121 % of control and 123 % of control and 274.2 % of control | fetal globin mRNA, Mean [8, 13]: 175 % of control | responses (cultures with induced fetal globin mRNA) ([8]; Desloratadine 3 uM, Normal progenitors): 1 response | fetal globin mRNA, Mean ([8]; Desloratadine 3 uM, Normal progenitors (ABM), 1 response): 1098 % of control | γ-globin mRNA induction ([8]; cultured primary human erythroid progenitors, concentrations pharmacologically achievable in humans): up to 6 fold

CC(=O)[C@]1(O)Cc2c(O)c3c(c(O)c2[C@@H](O[C@H]2C[C@H](N)[C@H](O)[C@H](C)O2)C1)C(=O)c1ccccc1C3=O [Idarubicin, idarubicin]
cytotoxicity (reason for elimination from further development) [9]: cytotoxicity | fold induction of the γ-globin promoter [10]: 8 fold

CCC(C)(C)C(=O)[O-].[Na+] [ST20, sodium 2,2-dimethylbutyrate]
Increase in γ-globin mRNA above baseline ([3]; Baboon HD50, ST20 oral 150 mg/kg): 310% | time of treatment after which fetal globin (HbF) mRNA increased ([3]; ST-20, same baboon as desloratidine): 2 weeks | dose required to increase HbF expression ([3]; in baboons): 50 to 150 mg/kg | dose required to increase HbF expression [11]: 20 to 50 mg/kg
